In patent publication US7090863B2, “Hypocholesterolemic composition and methods of use” (Inpharma S.A., priority 2001, dated 2006):

Test system: normocholesterolemic healthy male subjects
Experiment: Example 1 first phase: plasma lipoprotein variations after 15 days of soy bean proteins, β-sitosterol or their combination
Format: in vivo, human
Conditions: in rapport to post-seven days of stabilisation diet values
Text: For the first phase, 18 normocholesterolemic healthy male subjects (mean age: 32.5±8 years) have been enrolled. All subjects followed a stabilisation diet period of seven days during which they received some advises concerning their nourishment (according to the American Heart Association recommends), without any radical modification of their diet customs. A dietician monitored the patient dietary pattern trough the “Seven days questionnaire” for all the experimental duration. Patients were imposed to stop any nutritional supplementation. After this period, all subjects ingested for fifteen days 400 mg β-sitosterol two times/day (6 subjects), 1600 mg soy bean proteins two times/day (6 subjects) or a low dosage product containing soy proteins supplemented in β-sitosterol in a rapport 4:1 (offered and patented by Inpharma SA, Lugano, Switzerland), 2 g two times/day (6 subjects).
The hematochemistry measurements have been carried out on venous blood coming from antecubital harm vein, after 12 fasting hours after the stabilisation diet period and at the end. Blood has been collected into tubes […] heparin or other anticoagulant, plasma was immediately separated by high-speed centrifugation at 3500×g for twenty minutes. TC, HDL-C, TG, Glucose, and Uric acid have been determined with standardised enzymatic […] methods (Gaddi et al., 2001). LDL-C plasma level has been estimated with the Friedewald's formula [LDL-C=TC-(TG/5+HDL-C)], for TG<350 mg/dL.
Data have been sampled in a specific database and analysed with the help of the SPSS 8.0 statistical software. A normality Shapiro-Wilks test has been carried out on all the tested variables, followed by ANOVA and two-tails t-test for paired samples, when possible, and by a post-hoc Tukey's test. Percentages have been compared with the Fisher's exact test. Correlation degree between baseline plasma lipid levels and reduction obtained with the treatment were estimated with a Pearson's bivariate correlation test followed by linear regression. For all tests a “p” level less than 0.05 has been considered as significant.

For CC[C@H](CC[C@@H](C)[C@H]1CC[C@H]2[C@@H]3CC=C4C[C@@H](O)CC[C@]4(C)[C@H]3CC[C@]12C)C(C)C [β-sitosterol], the “Apolipoprotein Al variation” value was −0.1%, the “Apolipoprotein B variation” value was −0.3% and the “High Density Lipoproteins variation” value was “+0.3%”. For the same molecule, the “Low Density Lipoproteins variation” value was −4.9%, the “Total Cholesterol variation” value was −3.2% and the Tryglycerides variation was −0.1%. The “Very Low Density Lipoproteins variation” value was −0.2%.
